In patent US20250361490A1, “COMPOSITION AND METHOD FOR CRYOPRESERVATION OF MITOCHONDRIA” (cellvie AG, priority 2022, published 2025):

Tested on: isolated mitochondria from human cardiac fibroblast (HCF) cells
Assay: Mitochondrial membrane potential assay (MitoTracker Red CMXRos / MitoTracker Green FM staining)
Type: cell-based
Conditions: single cryoprotectant at 5%, 10%, 20% (v/v) in trehalose-based isolation buffer; frozen on dry ice, thawed 37° C.; normalized to non-frozen control
Procedure: Procedure: Isolated mitochondria in the form of pellets were resuspended in two different isolation buffers containing respectively either 300 mM sucrose or 300 mM trehalose and then frozen in 1.5 ml Eppendorf tubes by placing them either in liquid nitrogen for approximately 1 minute or on dry ice for approximately 3 minutes. For thawing, the tubes were placed in a 37° C. water bath until the entire sample was thawed, and then immediately transferred on ice.
To assess the mitochondrial membrane potential, the isolated mitochondria were resuspended either in the sucrose-containing isolation buffer or in the trehalose-containing isolation buffer at 1 mg/ml, and 15 μg of mitochondrial suspension were used for each sample. Both non-frozen mitochondria and mitochondria frozen and thawed according to procedure described under section 2.2 were stored on ice until use, e.g., stored for a period of 5 minutes to maximum 60 minutes, preferably for a few minutes (e.g., for a period of maximum 15 minutes, such as 5 minutes or 10 minutes). For Mitotracker Red CMXRos/Mitotracker Green FM staining, a labelling solution was prepared, by adding 200 nM MitoTracker Red CMxROS and 200 nM MitoTracker Green FM (Thermo Fisher) in the isolation buffer. The isolated mitochondria were then suspended in 1 ml of the labelling solution, vortexed and incubated for 15 minutes in a 37° C. incubator. Mitochondria were sedimented by centrifugation at 9500 g for 5 minutes at 4° C., washed once with the respective isolation buffer, and resuspended in the isolation buffer at a concentration of 1 mg/ml. […] MitoTracker Red or MitoTracker Green signal was quantified using Keyence BZ-800 Analyzer software, integrated brightness per image was taken for calculations and averaged between images taken from one sample.
The effect of cryoprotectant addition on maintaining integrity of the inner mitochondrial membrane was studied using MitoTracker staining assay, as described in Example 2.3. […] Alle frozen samples were thawed in a 37° C. water bath and analyzed by MitoTracker staining.

Row | Compound | integrity of the inner mitochondrial membrane (MitoTracker Red staining)
1 | O=C(O)[C@@H]1CCCN1 [CRYO6, L-Proline] | preserve mitochondria inner membrane integrity
2 | OC[C@H]1O[C@@](CO)(O[C@H]2O[C@H](CO)[C@@H](O)[C@H](O)[C@H]2O)[C@@H](O)[C@@H]1O [CRYO25, D-(+)-Sucrose] | preserve mitochondria inner membrane integrity
3 | O.O=C[C@H](O)[C@@H](O)[C@H](O)[C@H](O)CO [CRYO33, D-(+)-Glucose monohydrate] | preserve mitochondria inner membrane integrity
